US6063926A, “Substituted oximes as neurokinin antagonists” (Schering Corporation, priority 1998, dated 2000)
Like-named read-outs stand apart in the source and are kept apart here.

Columns and labels:
NK2 receptor = target: T1, NK2 receptor (Homo sapiens, UniProt P21452); assay: neurokinin receptor binding assay, NK2 (Ki)
T1 sequence (P21452 1-398): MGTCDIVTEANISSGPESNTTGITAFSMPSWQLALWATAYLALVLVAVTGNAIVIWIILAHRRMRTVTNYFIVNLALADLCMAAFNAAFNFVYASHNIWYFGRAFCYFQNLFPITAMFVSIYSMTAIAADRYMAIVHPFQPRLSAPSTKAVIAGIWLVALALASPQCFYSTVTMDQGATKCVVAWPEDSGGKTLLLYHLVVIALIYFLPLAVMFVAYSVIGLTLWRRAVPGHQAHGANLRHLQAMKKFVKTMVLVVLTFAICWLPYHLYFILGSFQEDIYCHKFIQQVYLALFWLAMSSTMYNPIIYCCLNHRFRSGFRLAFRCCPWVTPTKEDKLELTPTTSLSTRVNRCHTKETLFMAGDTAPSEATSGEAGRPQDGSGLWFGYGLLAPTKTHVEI
Source text: (§1) The in vitro and in vivo activity of the compounds of formula I can be determined by various procedures known in the art, such as a test for their ability to inhibit the activity of the NK1 agonist Substance P, an isolated hamster trachea NK2 assay, a test of the effect of NK1 antagonists on Substance P-induced airway microvascular leakage, measurement of NK2 activity in vivo in guinea pigs, measurement of bronchoconstriction due to NKA, and neurokinin receptor binding assay(s). Typical procedures are described in WO96/34857, published Nov. 7, 1996. NK3 activity is determined by following a procedure similar to that described in the literature, e.g., Molecular Pharmacol., 48 (1995), p. 711-716.
(§2) % Inhibition is the difference between the percent of maximum specific binding (MSB) and 100%. The percent of MSB is defined by the following equation, wherein "dpm" is disintegrations per minute: [formula]
(§3) Using the test procedures described above, the following 35 data (Ki) were obtained for exemplified compounds: […]

NK1 receptor = NK1 receptor (Homo sapiens, UniProt P25103); assay: neurokinin receptor binding assay, NK1 (Ki)
Sequence of NK1 receptor (P25103 whole entry): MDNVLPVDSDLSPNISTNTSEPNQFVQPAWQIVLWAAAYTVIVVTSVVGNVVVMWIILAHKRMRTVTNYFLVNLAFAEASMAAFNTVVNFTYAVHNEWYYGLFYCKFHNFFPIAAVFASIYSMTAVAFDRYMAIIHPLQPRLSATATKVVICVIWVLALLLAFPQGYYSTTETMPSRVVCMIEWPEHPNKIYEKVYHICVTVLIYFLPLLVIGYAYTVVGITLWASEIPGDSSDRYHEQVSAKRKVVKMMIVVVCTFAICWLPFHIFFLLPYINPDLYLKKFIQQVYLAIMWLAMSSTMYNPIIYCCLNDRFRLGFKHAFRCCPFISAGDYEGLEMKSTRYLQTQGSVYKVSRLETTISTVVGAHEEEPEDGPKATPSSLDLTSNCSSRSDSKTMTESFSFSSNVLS
Source text: as §1, §2, §3

Structure (SMILES)	Ki (NK2 receptor; read-out: Ki (NK2)) [pM]	Ki (NK1 receptor; read-out: Ki (NK1)) [pM]	Ki (NK2 receptor; compound of Example 11, amide disclosed in U.S. Pat. No. 5,696,267, read-out: Ki for the NK2 receptor (unit inferred)) [pM]	Ki (NK1 receptor; compound of Example 11, amide disclosed in U.S. Pat. No. 5,696,267, read-out: Ki for the NK1 receptor (unit inferred)) [pM]
CO/N=C(\CN(C)C(=O)c1cc(C(F)(F)F)cc(C(F)(F)F)c1)C(CCN1CCC(O)(c2ccccc2)CC1)c1ccc(Cl)c(Cl)c1 (centres unmarked) [Example 11]	–	–	9200	3600
CON=C(CN(C)C(=O)c1cc(Cl)cc(Cl)c1)C(CCN1CCC(N2CCCC(CC(=O)N3CC(O)C3)C2=O)CC1)c1ccc(Cl)c(Cl)c1 (centres unmarked) [Example 12E]	200	400	–	–
CON=C(CN(C)C(=O)c1cc(Cl)cc(Cl)c1)C(CCN1CCC(N2CCCC(CC(=O)N3CCCC3)C2=O)CC1)c1ccc(Cl)c(Cl)c1 (centres unmarked) [Example 12F]	800	600	–	–
CON=C(CN(C)C(=O)c1cc(Cl)cc(Cl)c1)C(CCN1CCC(N2CCCC(CC(=O)N3CCOCC3)C2=O)CC1)c1ccc(Cl)c(Cl)c1 (centres unmarked) [Example 12K]	500	900	–	–
CON=C(CN(C)C(=O)c1cc(Cl)cc(Cl)c1)C(CCN1CCC(N2CCCC(CC(=O)N3CCC(O)CC3)C2=O)CC1)c1ccc(Cl)c(Cl)c1 (centres unmarked) [Example 12L]	900	500	–	–
CON=C(CN(C)C(=O)c1cc(Cl)cc(Cl)c1)[C@H](CCN1CCC(N2CCC[C@H](CC(=O)N(C)C)C2=O)CC1)c1ccc(Cl)c(Cl)c1 [Example 13A]	200	800	–	–
CNC(=O)C[C@H]1CCCN(C2CCN(CC[C@@H](C(CN(C)C(=O)c3cc(Cl)cc(Cl)c3)=NOC)c3ccc(Cl)c(Cl)c3)CC2)C1=O [Example 13B]	300	900	–	–
CON=C(CN(C)C(=O)c1cc(Cl)cc(Cl)c1)[C@H](CCN1CCC(N2CCC[C@H](CC(N)=O)C2=O)CC1)c1ccc(Cl)c(Cl)c1 [Example 13C]	200	400	–	–
CON=C(CN(C)C(=O)c1cc(Cl)cc(Cl)c1)[C@H](CCN1CCC(N2CCCCC2=O)CC1)c1ccc(Cl)c(Cl)c1 [Example 13D]	700	1100	–	–
CON=C(CN(C)C(=O)c1cc(Cl)cc(Cl)c1)[C@H](CCN1CCC(N2CCC[C@H](CC(=O)O)C2=O)CC1)c1ccc(Cl)c(Cl)c1 [Example 13E]	600	400	–	–
CON=C(CN(C)C(=O)c1cc(Cl)cc(Cl)c1)[C@H](CCN1CCC(N2CCC[C@H](CC(=O)OC)C2=O)CC1)c1ccc(Cl)c(Cl)c1 [Example 13F]	300	200	–	–
CON=C(CN(C)C(=O)c1cc(Cl)cc(Cl)c1)[C@H](CC[N+]1([O-])CCC(N2CCCCC2=O)CC1)c1ccc(Cl)c(Cl)c1 (some centres unmarked) [Example 13G]	400	1500	–	–
CNC(=O)C[C@H]1CCCN(C2CC[N+]([O-])(CC[C@@H](C(CN(C)C(=O)c3cc(Cl)cc(Cl)c3)=NOC)c3ccc(Cl)c(Cl)c3)CC2)C1=O (some centres unmarked) [Example 13H]	400	2600	–	–
CN(C)C(=O)CC1CCCN(C2CCN(CCC(C(CN(C)C(=O)c3cc(Cl)cc(Cl)c3)=NO)c3ccc(Cl)c(Cl)c3)CC2)C1=O (centres unmarked) [Example 14B]	800	300	–	–
CN(C)C(=O)CC1CCCN(C2CCN(CCC(C(CN(C)C(=O)c3cc(Cl)cc(Cl)c3)=NOCC(N)=NO)c3ccc(Cl)c(Cl)c3)CC2)C1=O (centres unmarked) [Example 14D]	200	300	–	–
CON=C(N)CON=C(CN(C)C(=O)c1cc(Cl)cc(Cl)c1)C(CCN1CCC(N2CCCC(CC(=O)N(C)C)C2=O)CC1)c1ccc(Cl)c(Cl)c1 (centres unmarked) [Example 14E]	400	200	–	–
CNC(=O)CC1CCCN(C2CCN(CCC(C(CN(C)C(=O)c3cc(Cl)cc(Cl)c3)=NO)c3ccc(Cl)c(Cl)c3)CC2)C1=O (centres unmarked) [Example 15A]	700	200	–	–
CNC(=O)CC1CCCN(C2CCN(CCC(C(CN(C)C(=O)c3cc(Cl)cc(Cl)c3)=NOCC#N)c3ccc(Cl)c(Cl)c3)CC2)C1=O (centres unmarked) [Example 15B]	800	1700	–	–
CNC(=O)CC1CCCN(C2CCN(CCC(C(CN(C)C(=O)c3cc(Cl)cc(Cl)c3)=NOCC(N)=O)c3ccc(Cl)c(Cl)c3)CC2)C1=O (centres unmarked) [Example 15D]	500	400	–	–
CNC(=O)CON=C(CN(C)C(=O)c1cc(Cl)cc(Cl)c1)C(CCN1CCC(N2CCCC(CC(=O)NC)C2=O)CC1)c1ccc(Cl)c(Cl)c1 (centres unmarked) [Example 15E]	1000	500	–	–
CNC(=O)CC1CCCN(C2CCN(CCC(C(CN(C)C(=O)c3cc(Cl)cc(Cl)c3)=NOCC(N)=NO)c3ccc(Cl)c(Cl)c3)CC2)C1=O (centres unmarked) [Example 15F]	800	400	–	–
CNC(=O)CC1CCCN(C2CCN(CCC(C(CN(C)C(=O)c3cc(Cl)cc(Cl)c3)=NOCC(=O)Nc3nncs3)c3ccc(Cl)c(Cl)c3)CC2)C1=O (centres unmarked) [Example 15G]	1300	900	–	–
CNC(=O)CC1CCCN(C2CCN(CCC(C(CN(C)C(=O)c3cc(Cl)cc(Cl)c3)=NOCCCS(=O)(=O)O)c3ccc(Cl)c(Cl)c3)CC2)C1=O (centres unmarked) [Example 15H]	400	200	–	–
CNC(=O)CC1CCCN(C2CCN(CCC(C(CN(C)C(=O)c3cc(Cl)cc(Cl)c3)=NOCC(=O)NCC#N)c3ccc(Cl)c(Cl)c3)CC2)C1=O (centres unmarked) [Example 15I]	1000	800	–	–
CNC(=O)CC1CCCN(C2CCN(CCC(C(CN(C)C(=O)c3cc(Cl)cc(Cl)c3)=NOCC(=O)NCS(=O)(=O)O)c3ccc(Cl)c(Cl)c3)CC2)C1=O (centres unmarked) [Example 15J]	4300	700	–	–
CNC(=O)CC1CCCN(C2CCN(CCC(C(CN(C)C(=O)c3cc(Cl)cc(Cl)c3)=NOCF)c3ccc(Cl)c(Cl)c3)CC2)C1=O (centres unmarked) [Example 15K]	200	500	–	–
CCON=C(CN(C)C(=O)c1cc(Cl)cc(Cl)c1)C(CCN1CCC(N2CCCC(CC(=O)NC)C2=O)CC1)c1ccc(Cl)c(Cl)c1 (centres unmarked) [Example 15L]	1400	1000	–	–
CNC(=O)CC1CCCN(C2CCN(CCC(C(CN(C)C(=O)c3cc(Cl)cc(Cl)c3)=NOCC(N)=NOC)c3ccc(Cl)c(Cl)c3)CC2)C1=O (centres unmarked) [Example 15M]	300	200	–	–
CN(CC(=NO)C(CCN1CCC(N2CCCC(CC(N)=O)C2=O)CC1)c1ccc(Cl)c(Cl)c1)C(=O)c1cc(Cl)cc(Cl)c1 (centres unmarked) [Example 16A]	700	200	–	–
COc1cc(C(=O)N(C)CC(=NOCC(N)=NO)C(CCN2CCC(O)(c3ccccc3)CC2)c2ccc(Cl)c(Cl)c2)cc(OC)c1OC (centres unmarked) [Example 23]	500	800	–	–

Further lines, with some results ahead:

Ki (NK2 receptor; read-out: Ki (NK2)) [pM]	Ki (NK1 receptor; read-out: Ki (NK1)) [pM]	Structure (SMILES)	Ki (NK2 receptor; compound of Example 11, amide disclosed in U.S. Pat. No. 5,696,267, read-out: Ki for the NK2 receptor (unit inferred)) [pM]	Ki (NK1 receptor; compound of Example 11, amide disclosed in U.S. Pat. No. 5,696,267, read-out: Ki for the NK1 receptor (unit inferred)) [pM]
3000	500	CN(CC(=NO)C(CCN1CCC(N2CCCCC2=O)CC1)c1ccc(Cl)c(Cl)c1)C(=O)c1cc(Cl)cc(Cl)c1 (centres unmarked) [Example 17A]	–	–
700	700	CN(CC(=NOCC(N)=NO)C(CCN1CCC(N2CCCCC2=O)CC1)c1ccc(Cl)c(Cl)c1)C(=O)c1cc(Cl)cc(Cl)c1 (centres unmarked) [Example 17E]	–	–
2700	3300	CN(CC(=NOCCCS(=O)(=O)O)C(CCN1CCC(N2CCCCC2=O)CC1)c1ccc(Cl)c(Cl)c1)C(=O)c1cc(Cl)cc(Cl)c1 (centres unmarked) [Example 17K]	–	–
800	800	CN(CC(=NOCF)C(CCN1CCC(N2CCCCC2=O)CC1)c1ccc(Cl)c(Cl)c1)C(=O)c1cc(Cl)cc(Cl)c1 (centres unmarked) [Example 17S]	–	–
400	800	CON=C(CN(C)C(=O)c1cc(C)cc(C)c1)C(CCN1CCC(N2CCCCC2=O)CC1)c1ccc(Cl)c(Cl)c1 (centres unmarked) [Example 18B]	–	–
400	400	Cc1cc(C)cc(C(=O)N(C)CC(=NOCC#N)C(CCN2CCC(N3CCCCC3=O)CC2)c2ccc(Cl)c(Cl)c2)c1 (centres unmarked) [Example 18D]	–	–
400	400	Cc1cc(C)cc(C(=O)N(C)CC(=NOCC(N)=NO)C(CCN2CCC(N3CCCCC3=O)CC2)c2ccc(Cl)c(Cl)c2)c1 (centres unmarked) [Example 18E]	–	–
3400	300	Cc1cc(C)cc(C(=O)N(C)CC(=NOCC(=O)N2CCSCC2)C(CCN2CCC(N3CCCCC3=O)CC2)c2ccc(Cl)c(Cl)c2)c1 (centres unmarked) [Example 18J]	–	–
400	200	CON=C(N)CON=C(CN(C)C(=O)c1cc(C)cc(C)c1)C(CCN1CCC(N2CCCCC2=O)CC1)c1ccc(Cl)c(Cl)c1 (centres unmarked) [Example 18M]	–	–
200	200	Cc1cc(C)cc(C(=O)N(C)CC(=NOCC(N)=NO)C(CCN2CCC(N3CCCC(CC(=O)N(C)C)C3=O)CC2)c2ccc(Cl)c(Cl)c2)c1 (centres unmarked) [Example 19C]	–	–
1400	900	Cc1cc(C)cc(C(=O)N(C)CC(=NOCC(=O)Nc2nncs2)C(CCN2CCC(N3CCCC(CC(=O)N(C)C)C3=O)CC2)c2ccc(Cl)c(Cl)c2)c1 (centres unmarked) [Example 19D]	–	–
1800	600	CONC(=O)CON=C(CN(C)C(=O)c1cc(C)cc(C)c1)C(CCN1CCC(N2CCCC(CC(=O)N(C)C)C2=O)CC1)c1ccc(Cl)c(Cl)c1 (centres unmarked) [Example 19E]	–	–
500	6000	COc1cc(C(=O)N(C)CC(=NOCC(N)=NO)C(CCN2CCC(N3CCCCC3=O)CC2)c2ccc(Cl)c(Cl)c2)cc(OC)c1C (centres unmarked) [Example 21B]	–	–
